Assay results reported in patent US5288720A, “Angiotensin II receptor blocking 2,3,6 substituted quinazolinones” (American Cyanamid Company, priority 1993, dated 1994).

Tested on: ANGIOTENSIN II VASOPRESSOR RESPONSE
Assay: AII Challenge: blockade of angiotensin II vasopressor response in conscious SHR
Type: in vivo, rat (Conscious Male Okamoto-Aoki SHR)
Conditions: SHR n=2
Summary of the method: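 Conscious male Okamoto-Aoki SHR (16-20 weeks, ~330 g) cannulated in aorta and vena cava under local procaine; angiotensin II (human) 0.05 and 0.1 ug/kg i.v. given before and at 30-300 min after test compound i.v., i.p. or orally. Rise in systolic pressure (mmHg) expressed as % blockade versus each rat's predose response.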

[1] = 3 mg/kg p.o., AII 0.05 mcg/kg IV, 30 min post dose
[2] = 3 mg/kg p.o., AII 0.05 mcg/kg IV, 60 min post dose
[3] = 3 mg/kg p.o., AII 0.05 mcg/kg IV, 90 min post dose
[4] = 3 mg/kg p.o., AII 0.05 mcg/kg IV, 120 min post dose
[5] = 3 mg/kg p.o., AII 0.05 mcg/kg IV, 180 min post dose
[6] = 3 mg/kg p.o., AII 0.1 mcg/kg IV, 30 min post dose
[7] = 3 mg/kg p.o., AII 0.1 mcg/kg IV, 60 min post dose
[8] = 3 mg/kg p.o., AII 0.1 mcg/kg IV, 90 min post dose
[9] = 3 mg/kg p.o., AII 0.1 mcg/kg IV, 120 min post dose
[10] = 3 mg/kg p.o., AII 0.1 mcg/kg IV, 180 min post dose
[11] = 10 mg/kg i.v., AII 0.05 mcg/kg IV, 30 min post dose
[12] = 10 mg/kg i.v., AII 0.05 mcg/kg IV, 60 min post dose
[13] = 10 mg/kg i.v., AII 0.05 mcg/kg IV, 90 min post dose
[14] = 10 mg/kg i.v., AII 0.05 mcg/kg IV, 120 min post dose
[15] = 10 mg/kg i.v., AII 0.05 mcg/kg IV, 180 min post dose
[16] = 10 mg/kg i.v., AII 0.05 mcg/kg IV, 240 min post dose
[17] = 10 mg/kg i.v., AII 0.05 mcg/kg IV, 300 min post dose
[18] = 10 mg/kg i.v., AII 0.1 mcg/kg IV, 30 min post dose
[19] = 10 mg/kg i.v., AII 0.1 mcg/kg IV, 60 min post dose
[20] = 10 mg/kg i.v., AII 0.1 mcg/kg IV, 90 min post dose
[21] = 10 mg/kg i.v., AII 0.1 mcg/kg IV, 120 min post dose
[22] = 10 mg/kg i.v., AII 0.1 mcg/kg IV, 180 min post dose
[23] = 10 mg/kg i.v., AII 0.1 mcg/kg IV, 240 min post dose
[24] = 10 mg/kg i.v., AII 0.1 mcg/kg IV, 300 min post dose

For `CCCCc1nc2ccc(C(OC)C3CCCN(C)C3=O)cc2c(=O)n1Cc1ccc(-c2ccccc2-c2nn[nH]n2)cc1` (single isomer, unassigned; isomer 1) [Example 42, 2-Butyl-6-methoxy(1-methyl-2-oxo-3-piperidinyl)methyl]-3-[[2' -1H-tetrazol-5-yl)[1,1'-biphenyl]-4-yl]methyl-4(3H)-quinazolinone isomer 1], the “% Inhibition of AII vasopressor response” value [1] was 19%, the “Average Change (systolic blood pressure response to AII)” value (from here on “Average Change”) [1] was 32.5 mmHg and the “% Inhibition of AII vasopressor response” value [2] was 19%. For the same compound, the “Average Change” value [2] was 32.5 mmHg, the “% Inhibition of AII vasopressor response” value [3] was 50% and the “Average Change” value [3] was 20 mmHg. For the same compound, the “% Inhibition of AII vasopressor response” value [4] was 19%, the “Average Change” value [4] was 32.5 mmHg and the “% Inhibition of AII vasopressor response” value [5] was -2%. For the same compound, the “Average Change” value [5] was 41 mmHg, the “% Inhibition of AII vasopressor response” value [6] was 22% and the “Average Change” value [6] was 35 mmHg. The “% Inhibition of AII vasopressor response” value [7] was 22%, the “Average Change” value [7] was 35 mmHg and the “% Inhibition of AII vasopressor response” value [8] was 13%. The “Average Change” value [8] was 39 mmHg, the “% Inhibition of AII vasopressor response” value [9] was 11% and the “Average Change” value [9] was 40 mmHg. For the same compound, the “% Inhibition of AII vasopressor response” value [10] was 0%, the “Average Change” value [10] was 45 mmHg and the “% Inhibition of AII vasopressor response” value [11] was 100%. The “Average Change” value [11] was 0 mmHg, the “% Inhibition of AII vasopressor response” value [12] was 86% and the “Average Change” value [12] was 5 mmHg. The “% Inhibition of AII vasopressor response” value [13] was 93%, the “Average Change” value [13] was 2.5 mmHg and the “% Inhibition of AII vasopressor response” value [14] was 93%. The “Average Change” value [14] was 2.5 mmHg, the “% Inhibition of AII vasopressor response” value [15] was 64% and the “Average Change” value [15] was 12.5 mmHg. For the same compound, the “% Inhibition of AII vasopressor response” value [16] was 43%, the “Average Change” value [16] was 20 mmHg and the “% Inhibition of AII vasopressor response” value [17] was 43%. For the same compound, the “Average Change” value [17] was 20 mmHg, the “% Inhibition of AII vasopressor response” value [18] was 100% and the “Average Change” value [18] was 0 mmHg. For the same compound, the “% Inhibition of AII vasopressor response” value [19] was 82%, the “Average Change” value [19] was 7.5 mmHg and the “% Inhibition of AII vasopressor response” value [20] was 76%. The “Average Change” value [20] was 10 mmHg, the “% Inhibition of AII vasopressor response” value [21] was 65% and the “Average Change” value [21] was 15 mmHg. The “% Inhibition of AII vasopressor response” value [22] was 59%, the “Average Change” value [22] was 17.5 mmHg and the “% Inhibition of AII vasopressor response” value [23] was 65%. For the same compound, the “Average Change” value [23] was 15 mmHg, the “% Inhibition of AII vasopressor response” value [24] was 47% and the “Average Change” value [24] was 22.5 mmHg.
